Reference: patent publication US12011444B2, “N-substituted indole derivatives as PGE2 receptor modulators” (Idorsia Pharmaceuticals Ltd, priority 2015, dated 2024)
pIC50: −log10 of the molar value.

Assays:
[1] = target: PTGER2 (EP2) (Homo sapiens (Human), UniProt P43116); assay: hEP2 b-arrestin assay (PathHunter HEK 293 PTGER2 b-arrestin cells); assay type: cell-based
How it was run: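 HEK293 cells expressing ProLink-tagged EP2 and EA-fused β-arrestin 2 (enzyme fragment complementation) were seeded 24 h, pre-incubated with compound 15 min at 37 °C, then stimulated with 5 μM PGE2 (final) for 120 min.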

[2] = target: PTRGER4 (EP4) (Homo sapiens (Human), UniProt P35408); assay: hEP4 b-arrestin assay (PathHunter HEK 293 PTGER4 b-arrestin cells); assay type: cell-based
How it was run: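 Stably transfected HEK293 cells carrying EP4–ProLink and β-arrestin 2–EA (β-gal fragment complementation), pre-incubated with compound 15 min at 37 °C, then stimulated with PGE2 (20 nM final) for 120 min at 37 °C. Chemiluminescence read after 1 h detection reagent at room temperature; activity per concentration expressed as percent of DMSO control.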

[3] = hEP2 b-arrestin assay (values without asterisk)
[4] = hEP4 b-arrestin assay (values without asterisk)
[5] = antagonistic activity on hEP2, mean where measured multiple times
[6] = antagonistic activity on hEP4, mean where measured multiple times

PTGER2 (EP2), sequence (P43116 whole entry, the tested form may be a part): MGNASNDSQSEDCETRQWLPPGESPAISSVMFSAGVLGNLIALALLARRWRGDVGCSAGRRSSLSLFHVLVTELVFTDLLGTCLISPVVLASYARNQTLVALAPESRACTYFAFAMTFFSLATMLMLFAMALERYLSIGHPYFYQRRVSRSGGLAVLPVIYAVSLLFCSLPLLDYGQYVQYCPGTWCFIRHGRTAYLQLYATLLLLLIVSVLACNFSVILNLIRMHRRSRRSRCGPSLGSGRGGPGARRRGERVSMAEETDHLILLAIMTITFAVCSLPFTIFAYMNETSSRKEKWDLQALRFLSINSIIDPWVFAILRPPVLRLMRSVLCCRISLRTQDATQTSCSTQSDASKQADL
PTRGER4 (EP4), sequence (P35408 whole entry, looked up, the tested form may be a part): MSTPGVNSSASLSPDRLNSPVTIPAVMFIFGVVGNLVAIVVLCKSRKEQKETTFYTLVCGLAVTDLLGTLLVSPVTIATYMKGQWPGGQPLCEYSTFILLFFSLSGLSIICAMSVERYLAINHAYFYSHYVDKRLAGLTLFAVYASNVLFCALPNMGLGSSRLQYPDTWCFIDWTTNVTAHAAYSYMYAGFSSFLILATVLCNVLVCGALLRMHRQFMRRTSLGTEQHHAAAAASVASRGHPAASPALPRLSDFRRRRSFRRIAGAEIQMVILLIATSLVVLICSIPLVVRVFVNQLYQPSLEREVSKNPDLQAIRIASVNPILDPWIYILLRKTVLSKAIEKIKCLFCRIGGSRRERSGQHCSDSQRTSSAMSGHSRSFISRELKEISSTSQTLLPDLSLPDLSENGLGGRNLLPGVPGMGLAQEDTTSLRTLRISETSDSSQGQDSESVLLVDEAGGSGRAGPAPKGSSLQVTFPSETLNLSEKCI

In the case of `CCOc1cc(-c2cc(NCCn3c(C#N)cc4c(C)ccc(F)c43)ncn2)sc1C(=O)O` [Example 891, 5-{6-[2-(2-Cyano-7-fluoro-4-methyl-indol-1-yl)-ethylamino]-pyrimidin-4-yl}-3-ethoxy-thiophene-2-carboxylic acid], the pIC50 [1, 3] was 8.22 and the pIC50 [2, 4] was 8.52.
`CCOc1cc(-c2cc(NCCn3c(C)cc4c(OC)ccc(F)c43)ncn2)ccc1-c1nc2ccccc2o1` [Example 849, [6-(4-Benzooxazol-2-yl-3-ethoxy-phenyl)-pyrimidin-4-yl]-[2-(7-fluoro-4-methoxy-2-methyl-indol-1-yl)-ethyl]-amine] showed a pIC50 [1, 3] of 7.41 and a pIC50 [2, 4] of 6.23.
`Cc1n[nH]c2cc(-c3cc(NCCn4c(C)cc5c(C)cc(F)cc54)ncn3)ccc12` [compound 52] was tested, and the pIC50 [1, 5] was 6.66 and the pIC50 [2, 6] was 6.23.
With `CNc1cc(-c2cc(NCCn3c(C)cc4c(F)ccc(F)c43)ncn2)ccc1C(=O)O` [compound 134, 4-{6-[2-(4,7-Difluoro-2-methyl-indol-1-yl)-ethylamino]-pyrimidin-4-yl}-2-methylamino-benzoic acid] the pIC50 [1, 5] was 9.00 and the pIC50 [2, 6] was 6.76.
Work on `N#Cc1cc2c(Cl)cccc2n1CCNc1cc(-c2cc(C(F)(F)F)c(C(=O)O)s2)ncn1` [Example 911, 5-{6-[2-(4-Chloro-2-cyano-indol-1-yl)-ethylamino]-pyrimidin-4-yl}-3-trifluoromethyl-thiophene-2-carboxylic acid] yielded a pIC50 [1, 3] of 8.15 and a pIC50 [2, 4] of 7.57.
With `COc1cccc2c1cc(C)n2CCNc1cc(-c2ccc(-c3nc(N)sc3C)cc2)ncn1` [compound 311, {6-[4-(2-Amino-5-methyl-thiazol-4-yl)-phenyl]-pyrimidin-4-yl}-[2-(4-methoxy-2-methyl-indol-1-yl)-ethyl]-amine] the pIC50 [1, 5] was 8.40 and the pIC50 [2, 6] was 6.63.
`COc1cc(-c2cc(NCCn3c(C)cc4c(C)cc(F)cc43)ncn2)ccc1C(=O)O` [compound 232] showed a pIC50 [1, 5] of 7.68 and a pIC50 [2, 6] of 6.14.
For `COc1ccc(F)c2c1cc(C)n2CCNc1cc(-c2ccc(C(=O)O)c(C)c2)ncn1` [compound 233], the pIC50 [1, 5] was 7.28 and the pIC50 [2, 6] was 6.50.
`CCOc1cc(-c2cc(NCCn3c(C)cc4c(C)ccc(F)c43)ncn2)ccc1C(=O)O` [Example 158, 2-ethoxy-4-{6-[2-(7-fluoro-2,4-dimethyl-indol-1-yl)-ethylamino]-pyrimidin-4-yl}-benzoic acid] showed a pIC50 [1, 5] of 7.41 and a pIC50 [2, 6] of 6.79.
`CCOc1cc(-c2cc(NCCn3c(C#N)cc4c(C)cc(F)c(F)c43)ncn2)sc1C(=O)O` [Example 942, 5-{6-[2-(2-Cyano-6,7-difluoro-4-methyl-indol-1-yl)-ethylamino]-pyrimidin-4-yl}-3-ethoxy-thiophene-2-carboxylic acid] showed a pIC50 [1, 3] of 8.52 and a pIC50 [2, 4] of 8.22.
`COc1cc(-c2cc(NCCn3c(C)cc4c(OC)cccc43)ncn2)ccc1CO` [compound 36, (2-Methoxy-4-{6-[2-(4-methoxy-2-methyl-indol-1-yl)-ethylamino]-pyrimidin-4-yl}-phenyl)-methanol] showed a pIC50 [1, 5] of 8.30 and a pIC50 [2, 6] of 6.66.
Molecule `COc1cc(-c2cc(NCCn3c(C#N)cc4c(OC)ccc(F)c43)ncn2)ccn1` [Example 898, 7-Fluoro-4-methoxy-1-{2-[6-(2-methoxy-pyridin-4-yl)-pyrimidin-4-ylamino]-ethyl}-1H-indole-2-carbonitrile] has a pIC50 [1, 3] of 7.39 and a pIC50 [2, 4] of 6.91.
`CCOc1cc(-c2cc(NCCn3c(C)cc4c(C)c(F)cc(Cl)c43)ncn2)sc1C(=O)O` [Example 837, 5-{6-[2-(7-Chloro-5-fluoro-2,4-dimethyl-indol-1-yl)-ethylamino]-pyrimidin-4-yl}-3-ethoxy-thiophene-2-carboxylic acid] showed a pIC50 [1, 3] of 7.55 and a pIC50 [2, 4] of 7.41.
Work on `CCc1cc(-c2cc(NCCn3c(C)cc4c(CC)cccc43)ncn2)ccc1C(=O)O` [compound 118, 2-Ethyl-4-{6-[2-(4-ethyl-2-methyl-indol-1-yl)-ethylamino]-pyrimidin-4-yl}-benzoic acid] yielded a pIC50 [1, 5] of 6.21 and a pIC50 [2, 6] of 6.03.
Work on `CCOc1cc(-c2cc(NCCn3c(C#N)cc4c(OC)ccc(F)c43)ncn2)sc1C(=O)O` [Example 805, 5-{6-[2-(2-cyano-7-fluoro-4-methoxy-indol-1-yl)-ethylamino]-pyrimidin-4-yl}-3-ethoxy-thiophene-2-carboxylic acid] yielded a pIC50 [1, 3] of 8.40 and a pIC50 [2, 4] of 8.30.
`CCOc1cc(-c2cc(NCCn3c(C)cc4ccc(OC)cc43)ncn2)ccc1C(=O)O` [compound 255] showed a pIC50 [1, 5] of 7.92 and a pIC50 [2, 6] of 6.05.
Molecule `Cc1ccc(F)c2c1cc(C)n2CCNc1cc(-c2ccc(C(=O)O)c(CC(C)C)c2)ncn1` [compound 336, 4-{6-[2-(7-Fluoro-2,4-dimethyl-indol-1-yl)-ethylamino]-pyrimidin-4-yl}-2-isobutyl-benzoic acid] has a pIC50 [1, 5] of 7.34 and a pIC50 [2, 6] of 6.70.
Molecule `COc1ccc(Cl)c2c1cc(C)n2CCNc1cc(-c2cc(F)c(C(=O)O)s2)ncn1` [compound 111] has a pIC50 [1, 5] of 7.51 and a pIC50 [2, 6] of 6.78.
`CCOc1cc(-c2cc(NCCn3c(C#N)cc4c(C)cc(F)cc43)ncn2)ccc1C(=O)O` [compound 395] was tested, and the pIC50 [1, 5] was 7.62 and the pIC50 [2, 6] was 6.86.
In the case of `CCc1cc(-c2cc(NCCn3c(C)cc4c(C)cccc43)ncn2)ccc1C(=O)O` [compound 26, 4-{6-[2-(2,4-Dimethyl-indol-1-yl)-ethylamino]-pyrimidin-4-yl}-2-ethyl-benzoic acid], the pIC50 [1, 5] was 8.05 and the pIC50 [2, 6] was 6.01.
`CCOc1cc(-c2cc(NCCn3c(C)c(F)c4c(OC)ccc(F)c43)ncn2)sc1C(=O)O` [Example 1057, 5-{6-[2-(3,7-Difluoro-4-methoxy-2-methyl-indol-1-yl)-ethylamino]-pyrimidin-4-yl}-3-ethoxy-thiophene-2-carboxylic acid] gave a pIC50 [1, 3] of 8.22 and a pIC50 [2, 4] of 8.05.
`COc1ccc(F)c2c1cc(C)n2CCNc1cc(-c2ccc(S(C)(=O)=O)c(F)c2)ncn1` [compound 161] showed a pIC50 [1, 5] of 6.40 and a pIC50 [2, 6] of 6.00.
`COc1ccc(F)c2c1cc(C)n2CCNc1cc(-c2ccc(C3(N)CC3)cc2)ncn1` [compound 385] gave a pIC50 [1, 5] of 6.74 and a pIC50 [2, 6] of 6.33.
Molecule `CCOc1cc(-c2cc(NCCn3c(C#N)cc4c(C)c(F)cc(F)c43)ncn2)sc1C(=O)O` [Example 940, 5-{6-[2-(2-Cyano-5,7-difluoro-4-methyl-indol-1-yl)-ethylamino]-pyrimidin-4-yl}-3-ethoxy-thiophene-2-carboxylic acid] has a pIC50 [1, 3] of 8.00 and a pIC50 [2, 4] of 8.52.
`COc1ccc(F)c2c1cc(C#N)n2CCNc1cc(-c2ccc(C(=O)O)cc2)ncn1` [Example 974, 4-{6-[2-(2-Cyano-7-fluoro-4-methoxy-indol-1-yl)-ethylamino]-pyrimidin-4-yl}-benzoic acid] was tested, and the pIC50 [1, 3] was 7.44 and the pIC50 [2, 4] was 7.08.
`CCOc1cc(-c2cc(NCCn3c(C)cc4c(OC)ccc(F)c43)ncn2)ccc1NCC(=O)O` [Example 811, (2-Ethoxy-4-{6-[2-(7-fluoro-4-methoxy-2-methyl-indol-1-yl)-ethylamino]-pyrimidin-4-yl}-phenylamino)-acetic acid] gave a pIC50 [1, 3] of 8.52 and a pIC50 [2, 4] of 7.70.
`COc1ccc(F)c2c1cc(C#N)n2CCNc1cc(-c2ccc(CCC(=O)O)cc2)ncn1` [Example 1019, 3-(4-{6-[2-(2-Cyano-7-fluoro-4-methoxy-indol-1-yl)-ethylamino]-pyrimidin-4-yl}-phenyl)-propionic acid] showed a pIC50 [1, 3] of 6.31 and a pIC50 [2, 4] of 6.78.
`CCOc1cc(-c2cc(NCCn3c(C#N)cc4c(OC)ccc(F)c43)ncn2)ccc1CC(=O)O` [Example 873, (4-{6-[2-(2-Cyano-7-fluoro-4-methoxy-indol-1-yl)-ethylamino]-pyrimidin-4-yl}-2-ethoxy-phenyl)-acetic acid] showed a pIC50 [1, 3] of 7.11 and a pIC50 [2, 4] of 7.74.
For `CCNc1csc(-c2cc(NCCn3c(C)cc4c(C)ccc(F)c43)ncn2)c1` [Example 1068, [6-(4-Ethylamino-thiophen-2-yl)-pyrimidin-4-yl]-[2-(7-fluoro-2,4-dimethyl-indol-1-yl)-ethyl]-amine], the pIC50 [1, 3] was 8.00 and the pIC50 [2, 4] was 7.82.
Work on `COc1cccc2c1cc(C)n2CCNc1cc(-c2ccc(C3(C(=O)O)CC3)c(F)c2)ncn1` [compound 386] yielded a pIC50 [1, 5] of 7.40 and a pIC50 [2, 6] of 6.25.
`COc1ccc(F)c2c1cc(C)n2CCNc1cc(-c2nc(OC(C)C)c(C(=O)O)s2)ncn1` [Example 1032, 2-{6-[2-(7-Fluoro-4-methoxy-2-methyl-indol-1-yl)-ethylamino]-pyrimidin-4-yl}-4-isopropoxy-thiazole-5-carboxylic acid] was tested, and the pIC50 [1, 3] was 8.00 and the pIC50 [2, 4] was 7.85.
Work on `CSc1cc(-c2cc(NCCn3c(C)cc4c(C)c(F)cc(Cl)c43)ncn2)cc(Cl)c1C(=O)O` [compound 331] yielded a pIC50 [1, 5] of 7.01 and a pIC50 [2, 6] of 6.08.
With `CCOc1cc(-c2cc(NCCn3c(C)cc4c(OC)ccc(Cl)c43)ncn2)cc(C)c1C(=O)O` [compound 365, 4-{6-[2-(7-Chloro-4-methoxy-2-methyl-indol-1-yl)-ethylamino]-pyrimidin-4-yl}-2-ethoxy-6-methyl-benzoic acid] the pIC50 [1, 5] was 7.60 and the pIC50 [2, 6] was 6.39.
`CCSc1cc(-c2cc(NCCn3c(C#N)cc4c(OC)cc(F)cc43)ncn2)ccc1C(=O)O` [Example 954, 4-{6-[2-(2-Cyano-6-fluoro-4-methoxy-indol-1-yl)-ethylamino]-pyrimidin-4-yl}-2-ethylsulfanyl-benzoic acid] was tested, and the pIC50 [1, 3] was 7.82 and the pIC50 [2, 4] was 7.39.
For `CCSc1cc(-c2cc(NCCn3c(C#N)cc4c(OC)ccc(F)c43)ncn2)ccc1C(=O)O` [Example 953, 4-{6-[2-(2-Cyano-7-fluoro-4-methoxy-indol-1-yl)-ethylamino]-pyrimidin-4-yl}-2-ethylsulfanyl-benzoic acid], the pIC50 [1, 3] was 8.30 and the pIC50 [2, 4] was 7.68.
